Tests used:
Assay in all cases: NCI 60 cell one-dose screening (SRB)
Type in all cases: cell-based
[1] = test system: HOP-62; details: Homo sapiens; HOP-62, Non-Small Cell Lung Cancer; single dose 10 µM, 48 h; read-out: Percentage of cellular growth inhibition
Description: (§1) The 60 cancerous cell panel screening was performed following the Developmental Therapeutics Program (DTP) of the National Cancer Institute (NIH-NCI), USA. A single dose of 10 µM was used to perform the screening at 48 h incubation and the results were achieved as cancerous cell growth percentage relative to the no-drug control that was converted to an inhibition percentage by subtracting from 100.The cancerous cell lines were grown in RPMI 1640 medium containing 5% foetal bovine serum and 2 mM L-glutamine at 37 °C, 5% CO2, 95% air and 100% relative humidity for 24 h prior to addition of the tested compounds. After 24 h, two plates of each cell line were fixed in situ with TCA to represent a measurement of the cell population for each cell line at the time of drug addition (Tz). Compounds were dissolved in DMSO at 400-fold the desired final maximum test concentration and stored frozen prior to use. At the time of drug addition, an aliquot of frozen concentrate was thawed and diluted to twice the desired final maximum test concentration with complete medium containing 50 µg/mL gentamicin. Aliquots of 100 µL of the compounds dilution was added to the appropriate micro titre wells already containing 100 µL of medium, resulting in the required final drug concentrations of 10 µM. Following compounds addition, the plates were incubated for an additional 48 h at 37 °C, 5% CO2, 95% air, and 100% relative humidity. For adherent cells, the assay was terminated by the addition of cold TCA. Cells were fixed in situ by the gentle addition of 50 µL of cold 50% (w/v) TCA (final concentration, 10% TCA) and incubated for 60 min at 4 °C. The supernatant was discarded, and the plates were washed five times with tap water and air dried. Sulphorhodamine B (SRB) solution (100 µL) at 0.4% (w/v) in 1% acetic acid is added to each well, and plates are incubated for 10 min at room temperature. After staining, unbound dye was removed by washing five times with 1% acetic acid and the plates were air dried. Bound stain was subsequently solubilised with 10 mM trizma base, and the absorbance was read on an automated plate reader at a wavelength of 515 nm. For suspension cells, the methodology was the same except that the assay was terminated by fixing settled cells at the bottom of the wells by gently adding 50 µL of 80% TCA (final concentration, 16% TCA). Using the seven absorbance measurements [time zero, (Tz), control growth, I, and test growth in the presence of drug at the five concentration levels (Ti)], the percentage growth was calculated as: [(Ti−Tz)/(C−Tz)]×100 for concentrations for which Ti>/=Tz [(Ti−Tz)/Tz]×100 for concentrations for which Ti<Tz.

[2] = test system: RXF 393; details: Homo sapiens; RXF 393, Renal Cancer; single dose 10 µM, 48 h; read-out: Percentage of cellular growth inhibition
Description: as §1

[3] = test system: A498; details: Homo sapiens; A498, Renal Cancer; single dose 10 µM, 48 h; read-out: Percentage of cellular growth inhibition
Description: as §1

[4] = test system: HCT-116; details: Homo sapiens; HCT-116, Colon Cancer; single dose 10 µM, 48 h; read-out: Percentage of cellular growth inhibition
Description: as §1

[5] = test system: SF-268; details: Homo sapiens; SF-268, CNS Cancer; single dose 10 µM, 48 h; read-out: Percentage of cellular growth inhibition
Description: as §1

[6] = test system: UACC-62; details: Homo sapiens; UACC-62, Melanoma; single dose 10 µM, 48 h; read-out: Percentage of cellular growth inhibition
Description: as §1

[7] = test system: OVCAR-4; details: Homo sapiens; OVCAR-4, Ovarian Cancer; single dose 10 µM, 48 h; read-out: Percentage of cellular growth inhibition
Description: as §1

[8] = test system: NCI-H322M; details: Homo sapiens, Non-Small Cell Lung Cancer, single dose 10 µM, 48 h, read-out: Percentage of cellular growth inhibition
Description: as §1

[9] = test system: UACC-257; details: Homo sapiens; UACC-257, Melanoma; single dose 10 µM, 48 h; read-out: Percentage of cellular growth inhibition
Description: as §1

[10] = test system: MCF7; details: Homo sapiens; MCF7, Breast Cancer; single dose 10 µM, 48 h; read-out: Percentage of cellular growth inhibition
Description: as §1

[11] = test system: 786-0; details: Homo sapiens; 786-0, Renal Cancer; single dose 10 µM, 48 h; read-out: Percentage of cellular growth inhibition
Description: as §1

[12] = test system: HCC-2998; details: Homo sapiens; HCC-2998, Colon Cancer; single dose 10 µM, 48 h; read-out: Percentage of cellular growth inhibition
Description: as §1

[13] = test system: SK-OV-3; details: Homo sapiens; SK-OV-3, Ovarian Cancer; single dose 10 µM, 48 h; read-out: Percentage of cellular growth inhibition
Description: as §1

[14] = test system: UO-31; details: Homo sapiens; UO-31, Renal Cancer; single dose 10 µM, 48 h; read-out: Percentage of cellular growth inhibition
Description: as §1

[15] = test system: TK-10; details: Homo sapiens; TK-10, Renal Cancer; single dose 10 µM, 48 h; read-out: Percentage of cellular growth inhibition
Description: as §1

[16] = test system: SK-MEL-28; details: Homo sapiens; SK-MEL-28, Melanoma; single dose 10 µM, 48 h; read-out: Percentage of cellular growth inhibition
Description: as §1

[17] = test system: NCI-H226; details: Homo sapiens; NCI-H226, Non-Small Cell Lung Cancer; single dose 10 µM, 48 h; read-out: Percentage of cellular growth inhibition
Description: as §1

[18] = test system: SF-539; details: Homo sapiens; SF-539, CNS Cancer; single dose 10 µM, 48 h; read-out: Percentage of cellular growth inhibition
Description: as §1

[19] = test system: U251; details: Homo sapiens, U-251; U251, CNS Cancer; single dose 10 µM, 48 h; read-out: Percentage of cellular growth inhibition
Description: as §1

[20] = test system: SNB-75; details: Homo sapiens; SNB-75, CNS Cancer; single dose 10 µM, 48 h; read-out: Percentage of cellular growth inhibition
Description: as §1

[21] = test system: A549/ATCC; details: Homo sapiens, Non-Small Cell Lung Cancer, single dose 10 µM, 48 h, read-out: Percentage of cellular growth inhibition
Description: as §1

Q: Which inhibition at 10 µM [1] does the source give for `CCOc1ccc(/N=N/c2sc(Nc3cccc(Nc4nc(C)c(/N=N/c5ccc(OCC)cc5)s4)c3)nc2C)cc1` [5b, N^1,N^3-bis(5-((4-ethoxyphenyl)diazinyl)-4-methylthiazol-2-yl)benzene-1,3-diamine] here?
A: -1.3%

Q: And the inhibition at 10 µM [2]?
A: 1%

Q: What about the inhibition at 10 µM [3] of the same molecule?
A: 13.5%

Q: What about the inhibition at 10 µM [4] of the same molecule?
A: 3.8%

Q: And the inhibition at 10 µM [5]?
A: 4.5%

Q: What about the inhibition at 10 µM [6] of the same molecule?
A: 20.5%

Q: What about the inhibition at 10 µM [7] of the same molecule?
A: 0.1%

Q: What about the inhibition at 10 µM [8] of the same molecule?
A: 11.4%

Q: And the inhibition at 10 µM [9]?
A: -9.2%

Q: And the inhibition at 10 µM [10]?
A: 10.6%

Q: And the inhibition at 10 µM [11]?
A: 6.6%

Q: And the inhibition at 10 µM [12]?
A: -4.6%

Q: And the inhibition at 10 µM [13]?
A: 1.1%

Q: And the inhibition at 10 µM [14]?
A: 12.4%

Q: And the inhibition at 10 µM [15]?
A: -0.2%

Q: And the inhibition at 10 µM [16]?
A: 2.5%

Q: And the inhibition at 10 µM [17]?
A: 14.8%

Q: What about the inhibition at 10 µM [18] of the same molecule?
A: 0.1%

Q: And the inhibition at 10 µM [19]?
A: 3.3%

Q: What about the inhibition at 10 µM [20] of the same molecule?
A: 7.8%

Q: And the inhibition at 10 µM [21]?
A: 12.5%

Q: `c1ccc(/N=c2\scc(-c3ccccc3)n2-c2cccc(-n3c(-c4ccccc4)cs/c3=N\c3ccccc3)c2)cc1` [8a, N,N’-(3,3’-(1,3-phenylene)bis(4-phenylthiazole-3(3H)-yl-2(3H)-ylidene))dianiline] was tested. Which inhibition at 10 µM [1] did it give?
A: -12.6%

Q: What about the inhibition at 10 µM [2] of the same molecule?
A: 10.3%

Q: And the inhibition at 10 µM [3]?
A: -18.1%

Q: And the inhibition at 10 µM [4]?
A: -4.1%

Q: What about the inhibition at 10 µM [5] of the same molecule?
A: 0.3%

Q: And the inhibition at 10 µM [6]?
A: 20.3%

Q: What about the inhibition at 10 µM [7] of the same molecule?
A: 5.3%

Q: What about the inhibition at 10 µM [8] of the same molecule?
A: 1.8%

Q: And the inhibition at 10 µM [9]?
A: -11.8%

Q: What about the inhibition at 10 µM [10] of the same molecule?
A: 18%

Q: What about the inhibition at 10 µM [11] of the same molecule?
A: -11.1%

Q: What about the inhibition at 10 µM [12] of the same molecule?
A: -22.2%

Q: And the inhibition at 10 µM [13]?
A: -34.8%

Q: What about the inhibition at 10 µM [14] of the same molecule?
A: 25.4%

Q: And the inhibition at 10 µM [15]?
A: -38.8%

Q: And the inhibition at 10 µM [16]?
A: -3.6%

Q: What about the inhibition at 10 µM [17] of the same molecule?
A: 17%

Q: What about the inhibition at 10 µM [18] of the same molecule?
A: -7.1%

Q: And the inhibition at 10 µM [19]?
A: 2.7%

Q: And the inhibition at 10 µM [20]?
A: 11.7%

Q: And the inhibition at 10 µM [21]?
A: -4.9%

Q: Which results are given for `Fc1ccc(-c2cs/c(=N\c3ccccc3)n2-c2cccc(-n3c(-c4ccc(F)cc4)cs/c3=N\c3ccccc3)c2)cc1` [8b, N,N’-(3,3’-(1,3-phenylene)bis(4–(4-fluorophenyl)thiazole-3(3H)-yl-2(3H)-ylidene))dianiline]?
A: inhibition at 10 µM [1]: -4.6%; inhibition at 10 µM [2]: 11.6%; inhibition at 10 µM [3]: -6.4%; inhibition at 10 µM [4]: 16.7%; inhibition at 10 µM [5]: 8.7%; inhibition at 10 µM [6]: 41%; inhibition at 10 µM [7]: 34.7%; inhibition at 10 µM [8]: 15.2%; inhibition at 10 µM [9]: -7%; inhibition at 10 µM [10]: 42.9%; inhibition at 10 µM [11]: 4.2%; inhibition at 10 µM [12]: 12.1%; inhibition at 10 µM [13]: -15.4%; inhibition at 10 µM [14]: 26.3%; inhibition at 10 µM [15]: -16.6%; inhibition at 10 µM [16]: 1.7%; inhibition at 10 µM [17]: 23.5%; inhibition at 10 µM [18]: -0.9%; inhibition at 10 µM [19]: 28.1%; inhibition at 10 µM [20]: 15.4%; inhibition at 10 µM [21]: 19.8%

Q: Which inhibition at 10 µM [1] does the source give for `Cc1csc(Nc2cccc(Nc3nc(C)cs3)c2)n1` [3a, N^1,N^3-bis(4-methylthiazol-2-yl)benzene-1,3-diamine] here?
A: 3.5%

Q: And the inhibition at 10 µM [2]?
A: 4.8%

Q: And the inhibition at 10 µM [3]?
A: 51.2%

Q: And the inhibition at 10 µM [4]?
A: 4.8%

Q: What about the inhibition at 10 µM [5] of the same molecule?
A: 1.4%

Q: What about the inhibition at 10 µM [6] of the same molecule?
A: 22.3%

Q: What about the inhibition at 10 µM [7] of the same molecule?
A: 11.8%

Q: And the inhibition at 10 µM [8]?
A: 4.9%

Q: And the inhibition at 10 µM [9]?
A: -21.6%

Q: And the inhibition at 10 µM [10]?
A: 21.9%

Q: And the inhibition at 10 µM [11]?
A: -10.8%

Q: What about the inhibition at 10 µM [12] of the same molecule?
A: -4.2%

Q: What about the inhibition at 10 µM [13] of the same molecule?
A: 10.7%

Q: What about the inhibition at 10 µM [14] of the same molecule?
A: 15.7%

Q: And the inhibition at 10 µM [15]?
A: -35%

Q: What about the inhibition at 10 µM [16] of the same molecule?
A: 10.4%

Q: And the inhibition at 10 µM [17]?
A: 24.2%

Q: What about the inhibition at 10 µM [18] of the same molecule?
A: 7.9%

Q: What about the inhibition at 10 µM [19] of the same molecule?
A: 3.5%

Q: And the inhibition at 10 µM [20]?
A: 1.6%

Q: What about the inhibition at 10 µM [21] of the same molecule?
A: -3.9%

Reference: PMC9897788, “Design, synthesis and cytotoxic evaluation of novel bis-thiazole derivatives as preferential Pim1 kinase inhibitors with in vivo and in silico study” (Journal of Enzyme Inhibition and Medicinal Chemistry, 2023)
